This is an account of results in paper PMC5433929, “High-resolution crystal structure of the human CB1 cannabinoid receptor” (Nature, 2016).

In experiment [1] the target is CB1-PGS (Homo sapiens, UniProt P21554, DEL304-332/H302F/INS301[…]). Kind of experiment: Differential scanning fluorimetry on detergent-solubilized receptor. The following applies: 10 μM ligand.
Method: Differential Scanning Fluorimetry (DSF) assays were performed in 96-well PCR plates using an RT-PCR machine (CFX96, Bio-Rad). Standard assay conditions (25 μL) were 25mM HEPES pH 7.5, 150 mM NaCl, 0.01% LMNG, 0.002% CHS and 10 μM corresponding ligands. The protein concentration was 2 μM and the BODIPY FL-L-cystine dye[38] was added at 2 μM final. All reactions were incubated at 4°C for 20 min before scanning in the PCR machine. The fluorescence was measured at 0.5°C temperature intervals from 4°C to 90°C by using the FAM filter set (450–490 nm excitation, 515–530 nm emission).
In experiment [2] the target is CB2. The arrangement: method as in PMID 17327489. The following applies: cited from earlier work.
The target in experiment [3] is CB1. The arrangement: method as in PMID 17327489. The following applies: cited from earlier work.

Sequence of CB1-PGS (P21554 with tags, fused parts or gaps INS301[withheld]/H302F/DEL304-332): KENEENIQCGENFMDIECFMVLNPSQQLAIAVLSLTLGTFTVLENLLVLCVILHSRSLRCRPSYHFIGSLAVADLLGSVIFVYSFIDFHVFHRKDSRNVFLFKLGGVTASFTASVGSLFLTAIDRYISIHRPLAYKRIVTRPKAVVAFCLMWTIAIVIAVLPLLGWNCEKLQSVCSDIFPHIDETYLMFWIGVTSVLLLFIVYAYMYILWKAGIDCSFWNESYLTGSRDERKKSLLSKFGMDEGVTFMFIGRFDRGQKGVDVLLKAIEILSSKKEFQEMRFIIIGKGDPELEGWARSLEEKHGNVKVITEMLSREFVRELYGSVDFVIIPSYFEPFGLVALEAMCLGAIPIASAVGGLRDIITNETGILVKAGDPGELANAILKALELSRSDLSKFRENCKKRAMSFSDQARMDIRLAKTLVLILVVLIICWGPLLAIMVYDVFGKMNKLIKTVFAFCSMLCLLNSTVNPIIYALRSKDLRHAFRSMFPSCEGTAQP

Broadly, the Ki is the dissociation constant of the complex between target and ligand, obtained from inhibition or displacement. `C[C@H](NC(=O)C(C)(C)Oc1ccc(C(F)(F)F)cn1)[C@@H](Cc1ccc(Cl)cc1)c1cccc(C#N)c1` [taranabant, N-[(1S,2S)-3-(4-chlorophenyl)-2-(3-cyanophenyl)-1-methylpropyl]-2-methyl-2-{[5-(trifluoromethyl)pyridin-2-yl]oxy}propanamide]: the “effect on receptor thermostability (DSF)” value in experiment [1] is “enhanced thermostability”. The inhibitory constant (Ki) in experiment [2] is 170 nM; in experiment [3], 0.13 nM.
